16 compounds from ChEMBL document CHEMBL5244275, “Geminal Diheteroatomic Motifs: Some Applications of Acetals, Ketals, and Their Sulfur and Nitrogen Homologues in Medicinal Chemistry and Drug Design” (J Med Chem, 2021) can be followed below.

≈ marks a conversion by molar mass, not a printed value. Some results are limits rather than exact numbers.

The target in data set [1] is Sodium/glucose cotransporter 2 (Homo sapiens, UniProt P31639). Nature of the data set: Inhibition of human SGLT2.
Data set [2] is described as follows: Clearance in Chimpanzee at 0.5 mg/kg, iv bolus injection. In kind it is ADME, organism-based, Pan troglodytes. To be noted: in vivo.
For data set [3], the system named is Candida albicans. Nature of the data set: Fungicidal activity against Candida albicans. The data set is classed as functional.
Data set [4] deals with Candida albicans. Put plainly: Antifungal activity against Candida albicans GS. In kind it is functional, organism-based.
A short description of data set [5]: Clearance in Chimpanzee at 0.5 mg/kg administered as iv infusion. The data set is classed as ADME, organism-based, Pan troglodytes. To be noted: in vivo.
A short description of data set [6]: Stability of the compound at pH 7.4 aqueous phosphate buffer assessed as half-life. In kind it is physicochemical.
A short description of data set [7]: Stability of the compound assessed as compound hydrolysis by measuring rate constant. In kind it is physicochemical.
Data set [8] in a line: Antiplatelet activity in human platelet rich plasma assessed as platelet aggregation. The data set is classed as functional, cell-free.
The nature of data set [9]: Drug recovery in mouse urine. To be noted: pooled result: one value given for 8 cell lines, strains, targets or settings, read-out: Drug recovery. The data set is classed as ADME.
In data set [10] the test system is Mus musculus. Nature of the data set: Ex vivo inhibition of FAAH in po dosed mouse brain assessed as drug concentration required to inhibit [3H]ethanolamine degradation. In kind it is functional. To be noted: read-out: ID50 (the source's name).
Data set [11] concerns Mus musculus. Nature of the data set: Ex vivo inhibition of FAAH in ip dosed mouse brain assessed as drug concentration required to inhibit [3H]ethanolamine degradation. In kind it is functional. To be noted: read-out: ID50 (the source's name).
Data set [12] concerns the target Sterol O-acyltransferase 1 (Homo sapiens, UniProt P35610). Nature of the data set: Inhibition of ACAT in human THP-1. The data set is classed as cell-based.
Data set [13] addresses Amyloid-beta precursor protein (Homo sapiens, UniProt P05067). Put plainly: Inhibition of amyloid beta (1 to […] ) (unknown origin).
A short description of data set [14]: Ratio of drug concentration in brain to plasma in mouse at 30 mg/kg, po measured after 6 hrs. In kind it is ADME, organism-based. The following applies: read-out: BPR.
Data set [15] can be described thus: Oral bioavailability in mouse. In kind it is ADME, organism-based. To be noted: in vivo.
The nature of data set [16]: Antiplasmodial activity against Plasmodium berghei NK 173 infected in ICR (CD-1) mouse assessed as inhibition of parasite growth administered intraperitoneally for four days. The following applies: NK 173, 96 h.
A further data set concerns Plasmodium falciparum. Put plainly: Antiplasmodial activity against Plasmodium falciparum FCB1 assessed as inhibition of parasite growth. The data set is classed as functional, organism-based.
Data set [17] in a line: Stability of the compound at pH 2 assessed as half-life. In kind it is physicochemical. The following applies: buffer.
Data set [18] can be described thus: Oral bioavailability in rat. The data set is classed as ADME, organism-based. The following applies: in vivo.
Data set [19] is described as follows: Half-life in rat at 10 mg/kg, po. The data set is classed as ADME, organism-based. The following applies: in vivo.
Data set [20] is described as follows: Inhibition of Acinetobacter baumannii beta-lactamase OXA-235.
The nature of data set [21]: Inhibition of Acinetobacter baumannii beta-lactamase OXA-24.
Data set [22] can be described thus: Inhibition of Acinetobacter baumannii beta-lactamase OXA-143.
Data set [23] deals with Human immunodeficiency virus 1. Put plainly: Antiviral activity against HIV-1 RF. The data set is classed as functional, organism-based. To be noted: Human immunodeficiency virus 1, RF.
The test system of data set [24] is Human immunodeficiency virus 1. Nature of the data set: microbe, parasite or virus in culture. To be noted: Human immunodeficiency virus 1, LAV.
Data set [25] is described as follows: Clearance in rat plasma assessed as half-life. The data set is classed as ADME, cell-free.
Data set [26] is described as follows: Clearance in dog plasma assessed as half-life. The data set is classed as ADME, cell-free, Canis lupus familiaris.
Another data set is filed under the species Homo sapiens. Put plainly: Inhibition of Leukotriene B4 production in human whole blood. In kind it is functional.
A short description of data set [27]: Inhibition of Leukotriene B4 production in human blood Polymorphonuclear neutrophil cells. The data set is classed as functional, tissue-based.
Data set [28] in a line: Stability of the compound assessed as compound hydrolysis by measuring relative rate constant by dilatometric method. In kind it is physicochemical.
The nature of data set [29]: Drug degradation in citrate buffer at pH 8.5 measured after 18 hrs. In kind it is physicochemical. To be noted: read-out: Drug degradation.
A short description of data set [30]: Drug degradation in citrate buffer at pH 4 measured after 18 hrs. In kind it is physicochemical. The following applies: read-out: Drug degradation.
A short description of data set [31]: Dissociation constant, pKa of the compound. In kind it is physicochemical.

Sequence of Sodium/glucose cotransporter 2 (P31639 whole entry): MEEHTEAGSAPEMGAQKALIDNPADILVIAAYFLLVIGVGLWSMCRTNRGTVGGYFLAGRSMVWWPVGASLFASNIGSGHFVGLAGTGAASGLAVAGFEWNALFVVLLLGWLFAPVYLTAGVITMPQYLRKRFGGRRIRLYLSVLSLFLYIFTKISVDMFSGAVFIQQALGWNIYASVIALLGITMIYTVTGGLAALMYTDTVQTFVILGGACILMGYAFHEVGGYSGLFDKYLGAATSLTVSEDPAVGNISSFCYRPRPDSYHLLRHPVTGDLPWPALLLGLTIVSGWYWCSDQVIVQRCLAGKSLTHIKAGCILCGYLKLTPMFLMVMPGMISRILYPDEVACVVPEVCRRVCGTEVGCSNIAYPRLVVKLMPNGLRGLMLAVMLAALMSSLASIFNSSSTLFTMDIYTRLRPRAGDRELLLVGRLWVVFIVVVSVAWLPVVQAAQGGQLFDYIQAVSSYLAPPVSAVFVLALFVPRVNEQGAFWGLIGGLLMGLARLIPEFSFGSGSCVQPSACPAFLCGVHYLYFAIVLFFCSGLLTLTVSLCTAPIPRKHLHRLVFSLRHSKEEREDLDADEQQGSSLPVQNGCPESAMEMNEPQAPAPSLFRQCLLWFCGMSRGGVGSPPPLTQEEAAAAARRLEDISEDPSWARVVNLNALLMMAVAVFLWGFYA
Sequence of Sterol O-acyltransferase 1 (P35610 whole entry): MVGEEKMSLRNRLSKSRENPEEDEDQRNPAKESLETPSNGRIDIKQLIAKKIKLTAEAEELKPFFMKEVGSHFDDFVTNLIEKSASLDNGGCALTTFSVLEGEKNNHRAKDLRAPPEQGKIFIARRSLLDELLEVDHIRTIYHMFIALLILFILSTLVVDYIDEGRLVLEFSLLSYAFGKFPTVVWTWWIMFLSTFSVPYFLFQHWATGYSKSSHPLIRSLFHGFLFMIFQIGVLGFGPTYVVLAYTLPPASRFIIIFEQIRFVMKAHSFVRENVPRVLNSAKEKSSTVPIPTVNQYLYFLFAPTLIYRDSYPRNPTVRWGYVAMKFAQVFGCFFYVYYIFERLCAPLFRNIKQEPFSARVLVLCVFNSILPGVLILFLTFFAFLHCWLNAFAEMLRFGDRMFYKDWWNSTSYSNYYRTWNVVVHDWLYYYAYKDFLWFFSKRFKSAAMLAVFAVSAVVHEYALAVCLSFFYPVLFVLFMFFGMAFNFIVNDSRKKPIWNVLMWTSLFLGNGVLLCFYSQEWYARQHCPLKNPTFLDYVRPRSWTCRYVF
Sequence of Amyloid-beta precursor protein (P05067 whole entry): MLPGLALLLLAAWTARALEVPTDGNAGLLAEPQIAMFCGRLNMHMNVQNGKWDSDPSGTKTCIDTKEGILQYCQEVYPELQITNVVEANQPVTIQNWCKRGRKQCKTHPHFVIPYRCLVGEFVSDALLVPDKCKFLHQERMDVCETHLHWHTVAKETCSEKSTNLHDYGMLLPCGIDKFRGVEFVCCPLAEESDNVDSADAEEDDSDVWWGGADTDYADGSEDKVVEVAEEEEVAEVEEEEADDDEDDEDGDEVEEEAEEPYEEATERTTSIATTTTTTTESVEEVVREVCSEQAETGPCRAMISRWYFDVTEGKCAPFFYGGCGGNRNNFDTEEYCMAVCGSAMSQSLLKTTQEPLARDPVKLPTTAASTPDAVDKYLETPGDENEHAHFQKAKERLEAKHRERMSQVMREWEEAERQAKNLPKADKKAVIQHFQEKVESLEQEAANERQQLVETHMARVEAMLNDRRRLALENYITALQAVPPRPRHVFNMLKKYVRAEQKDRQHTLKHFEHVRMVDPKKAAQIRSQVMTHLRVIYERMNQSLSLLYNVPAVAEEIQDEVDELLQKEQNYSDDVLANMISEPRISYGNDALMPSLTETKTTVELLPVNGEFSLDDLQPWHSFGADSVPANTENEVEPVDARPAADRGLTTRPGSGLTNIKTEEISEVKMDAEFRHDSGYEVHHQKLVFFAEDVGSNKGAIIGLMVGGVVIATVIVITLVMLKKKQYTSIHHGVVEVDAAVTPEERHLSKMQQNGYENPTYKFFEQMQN

Consider `CCOc1ccc(Cc2cc([C@]34CO[C@](CO)(O3)[C@@H](O)[C@H](O)[C@H]4O)ccc2Cl)cc1`, for which the IC50 in data set [1] came out at 714 nM.

On to `CC[C@H](C)C[C@H](C)CCCCCCCCC(=O)N[C@H]1C[C@@H](O)[C@@H](NCCN)NC(=O)[C@@H]2[C@@H](O)CCN2C(=O)[C@H]([C@H](O)CCN)NC(=O)[C@H]([C@H](O)[C@@H](O)c2ccc(O)cc2)NC(=O)[C@@H]2C[C@@H](O)CN2C(=O)[C@H]([C@@H](C)O)NC1=O` [CASPOFUNGIN], for which the clearance in data set [2] stood at 0.26 mL/min/kg; in data set [5] it was 0.21 mL/min/kg. This compound showed a minimum fungicidal concentration (MFC) in the data set with Candida albicans [3] of 0.125 µg/mL (≈ 0.114 µM). The same compound displayed an IC50 in the data set with Candida albicans [4] of 0.6 nM.

Consider `FC1(F)[C@H]2O[C@@H]1[C@H](COCc1ccccc1)[C@@H](COCc1ccccc1)O2`, for which the half-life in data set [6] is above 720 h. For the same compound, the K in data set [7] was 2.4 10^-3/M/s.

For `CCCCC[C@H](O)/C=C/[C@H]1O[C@H]2C[C@H](O2)[C@@H]1C/C=C\CCCC(=O)O`, in [8], the EC50 came out at 162 nM. In addition, the K in data set [7] is recorded as 5.5 10^5/M/s.

On to `CC1(C)O[C@@H]2[C@@H](CC[C@@]3(COS(N)(=O)=O)OC(C)(C)O[C@@H]23)O1`, for which the dose excreted in data set [9] was 89%.

Turning to `COc1ccc2c(cccc2[C@H]2CO[C@H](CCCNC(=O)OCC(N)=O)OC2)c1`, the ED50 with Mus musculus [10] came out at 0.17 mg/kg; in the data set with Mus musculus [11] it was 0.1 mg/kg.

Take `Cc1cc(C)n(CCCC[C@H]2CO[C@H](c3nc(-c4ccccc4)c(-c4ccccc4)[nH]3)OC2)n1`: the 50% inhibitory concentration (IC50) in data set [12] is above 500 nM.

In [13], `CCC(=O)O[C@@H]([C@H]1C[C@@H](C)[C@H]2[C@H](O1)[C@H](O)[C@@]1(C)[C@@H]3CC[C@H]4C(C)(C)[C@@H](O[C@H]5CN(C6CN(C)C6)CCO5)CC[C@@]45C[C@@]35CC[C@]21C)C(C)(C)O` registered a half-maximal inhibitory concentration (IC50) of 100 nM. In addition, the Kp at 6 h in data set [14] was 0.55. The bioavailability in data set [15] came out at 45%.

As to `CO[C@H]1O[C@@H]2O[C@@]3(C)CC[C@H]4[C@H](C)CC[C@@H]([C@H]1C)[C@@]24OO3`, in data set [16], the ED50 is 8.4 µmol/kg. In the data set on Plasmodium falciparum, the half-inhibitory concentration (IC50) came to 3.5 nM. The half-life in data set [17] was 11 h.

As for `CN1CCN(C2CCN(C(=O)CC3CCC4(CC3)OOC3(OO4)C4CC5CC(C4)CC3C5)CC2)CC1` (stereo not given), the bioavailability in [18] turned out to be 38%; in data set [15] it was 42%. Moreover, the half-life in data set [19] was 2.4 h.

On to `C[C@]1(COC(=O)Cc2ccc(O)c(O)c2)[C@H](C(=O)O)N2C(=O)/C(=C/c3ccccn3)[C@H]2S1(=O)=O`, for which the figures for the concentration for half-maximal inhibition (IC50) in data set [20], in data set [21] and in data set [22] were 8 nM, 15 nM and 3 nM, respectively.

`Nc1ccn([C@H]2CS[C@@H](CO)O2)c(=O)n1` yielded an IC50 in data set [23] of 1220 nM. This compound yielded a half-maximal effective concentration (EC50) in data set [24] of 200 nM.

As for `CCOc1ccc(Cc2cc([C@]34OC[C@](CO)(O3)[C@@H](O)[C@H](O)[C@H]4O)ccc2Cl)cc1` [ERTUGLIFLOZIN], the figures for the half-life in [25] and in data set [26] were 4.1 h and 7.6 h, respectively.

Turning to `O=C1OCc2c1cc1cc(OCc3cccc(C4(O)CC5COC(C4)O5)c3)ccc1c2-c1ccoc1` (stereo not given), the values for the half-inhibitory concentration (IC50) (in the data set listed under Homo sapiens; in data set [27]) were 180 nM and 7 nM, respectively.

Turning to `CC1OCCO1`, the K in [28] was 5.1 10^3No_unit.

`COc1ccc(C2=CN(CNC(C)=O)CC2=O)cc1`: the degraded at 18 h in data set [29] was 40%; in [30], below 1%. The same compound gave a pKa in data set [31] below 6.
